The values that follow come from PubChem BioAssay (NCI).

Structures are written as SMILES.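 In this assay, cells in 96-well plates receive the compound at five concentrations for 48 hours. Endpoints are linearly interpolated between the surrounding concentrations. TGI denotes the concentration required for complete inhibition of growth.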

Some test systems named below: IGROV1 ovarian; SK-MEL-5 melanoma; CCRF-CEM leukemia; UO-31 renal; KM12 colon; SF-268 CNS; HL-60(TB) leukemia; TK-10 renal; MDA-MB-231 breast; EKVX NSCLC; SF-539 CNS; OVCAR-8 ovarian; HS 578T breast; MOLT-4 leukemia; ACHN renal; COLO 205 colon; A498 renal; HCC-2998 colon; MALME-3M melanoma.
What all share (assay): NCI-60 cell line screen, 48 h

Turning to `COc1ccc(/C=C2\CN(C)CC3C2=NC(=S)NC3c2ccc(OC)cc2)cc1` (configuration not stated), the TGI with IGROV1 ovarian is greater than 22.6 µM; with SK-MEL-5 melanoma it was greater than 100 µM; in the test on CCRF-CEM leukemia, greater than 24.7 µM; in the test on UO-31 renal, greater than 100 µM; in the test with KM12 colon it was greater than 65.8 µM; in the test with SF-268 CNS, greater than 100 µM. For the same compound, the TGI was 14.8 µM with HL-60(TB) leukemia; greater than 100 µM in the test on TK-10 renal; greater than 59.1 µM in the test with MDA-MB-231 breast; greater than 100 µM with EKVX NSCLC; 59.5 µM in the test with SF-539 CNS; greater than 100 µM in the test with OVCAR-8 ovarian. Besides, the TGI in the test on HS 578T breast is greater than 100 µM; with MOLT-4 leukemia, greater than 81.1 µM; in the test on ACHN renal it was greater than 100 µM; in the test with COLO 205 colon it was greater than 39.3 µM; with A498 renal it was 26.3 µM; in the test with HCC-2998 colon, greater than 100 µM. Also, the TGI in the test on MALME-3M melanoma was greater than 31.4 µM.

For `CCSC(=O)/C=C1\CN(C(=O)OC(C)(C)C)C1C(=O)OC(C)(C)C` (configuration not stated), the TGI stood at 14.6 µM in the test on IGROV1 ovarian; 12.6 µM in the test with SK-MEL-5 melanoma; 3.97 µM in the test on CCRF-CEM leukemia; 10 µM in the test on UO-31 renal; 12.3 µM in the test on KM12 colon; 21.6 µM in the test with SF-268 CNS. Besides, the TGI worked out at 4.42 µM in the test with HL-60(TB) leukemia; 6.39 µM in the test on TK-10 renal; 12.7 µM in the test on MDA-MB-231 breast; 26 µM in the test with EKVX NSCLC; 7.51 µM in the test with SF-539 CNS; 7.85 µM in the test on OVCAR-8 ovarian. Moreover, the TGI in the test on HS 578T breast was 19.4 µM; with MOLT-4 leukemia, 4.18 µM; in the test on ACHN renal, 8.82 µM; in the test with COLO 205 colon, 5.48 µM; in the test with A498 renal it was 23.9 µM; in the test with HCC-2998 colon it was 17.2 µM. Further, in the test with MALME-3M melanoma, the TGI was 4.42 µM.

With `CC[N+]1(C)CCC(O)(/C=C/c2ccc(Cl)cc2)C(C(=O)/C=C/c2ccc(Cl)cc2)C1` (configuration not stated), the TGI is greater than 22.4 µM in the test on IGROV1 ovarian; greater than 45.8 µM with SK-MEL-5 melanoma; 3.85 µM in the test on CCRF-CEM leukemia; 20.2 µM in the test on UO-31 renal; 10.3 µM in the test with KM12 colon; greater than 60.6 µM in the test on SF-268 CNS. In addition, the TGI in the test on HL-60(TB) leukemia was 4.87 µM; with TK-10 renal, 13 µM; in the test with MDA-MB-231 breast, greater than 31.5 µM; with EKVX NSCLC, greater than 57.3 µM; in the test on SF-539 CNS, greater than 20.5 µM; with OVCAR-8 ovarian it was 51 µM. Further, the TGI in the test with HS 578T breast was greater than 30.1 µM; with MOLT-4 leukemia, 6.52 µM; in the test on ACHN renal, 13.6 µM; with COLO 205 colon, greater than 26.5 µM; with A498 renal, 30.2 µM; in the test on HCC-2998 colon, 45.1 µM. The TGI with MALME-3M melanoma came out at 24.3 µM.

For the compound `CC(C)(C)c1cc(C(=O)/C=C/c2ccc3c(c2)CCO3)cc(C(C)(C)C)c1O`, the TGI was greater than 100 µM in the test with IGROV1 ovarian; 6.65 µM in the test with SK-MEL-5 melanoma; greater than 31.5 µM in the test with CCRF-CEM leukemia; greater than 54 µM in the test on UO-31 renal; 3.66 µM with KM12 colon; 24.5 µM with SF-268 CNS. The TGI in the test on HL-60(TB) leukemia was 5.53 µM; in the test on TK-10 renal, greater than 25.9 µM; with MDA-MB-231 breast, 6.54 µM; in the test on EKVX NSCLC, greater than 100 µM; in the test with SF-539 CNS, 1.46 µM; with OVCAR-8 ovarian, greater than 100 µM. Besides, the TGI is greater than 29.5 µM in the test on HS 578T breast; greater than 31.3 µM in the test on MOLT-4 leukemia; greater than 100 µM in the test on ACHN renal; 1.58 µM with COLO 205 colon; 24.4 µM with A498 renal; 3.8 µM with HCC-2998 colon. Besides, the TGI in the test on MALME-3M melanoma was greater than 100 µM.

For `CCCCc1ccc(Nc2nc(N)c3ncn(COCCO)c3n2)cc1`, the TGI with IGROV1 ovarian is 60.8 µM; in the test on SK-MEL-5 melanoma it was 32.7 µM; with CCRF-CEM leukemia it was greater than 100 µM; with UO-31 renal, greater than 100 µM; with KM12 colon it was greater than 100 µM; in the test with SF-268 CNS, greater than 100 µM. Also, the TGI in the test on HL-60(TB) leukemia was greater than 100 µM; in the test on TK-10 renal, greater than 100 µM; in the test on MDA-MB-231 breast, 76.7 µM; in the test on EKVX NSCLC, greater than 100 µM; with SF-539 CNS it was 60.6 µM; in the test on OVCAR-8 ovarian, 92.6 µM. For the same compound, the TGI in the test with HS 578T breast is 75 µM; in the test with MOLT-4 leukemia, greater than 100 µM; in the test on ACHN renal, 65.6 µM; in the test with COLO 205 colon, 43.8 µM; in the test on A498 renal it was 88.7 µM; in the test on HCC-2998 colon, 48.9 µM. For the same compound, the TGI in the test on MALME-3M melanoma amounted to 52.7 µM.

Turning to `C1=NCCNCCN=Cc2ccccc2OCc2cccc(n2)COc2ccccc21`, the TGI with IGROV1 ovarian is greater than 100 µM; with SK-MEL-5 melanoma, greater than 49.5 µM; in the test with CCRF-CEM leukemia, greater than 34.3 µM; with UO-31 renal it was greater than 30.7 µM; in the test on KM12 colon, greater than 62.2 µM; with SF-268 CNS it was greater than 96 µM. For the same compound, the TGI is 6.84 µM with HL-60(TB) leukemia; greater than 75.6 µM in the test on TK-10 renal; greater than 95.5 µM in the test with MDA-MB-231 breast; greater than 100 µM in the test on EKVX NSCLC; 11.1 µM in the test on SF-539 CNS; 37.5 µM in the test with OVCAR-8 ovarian. Moreover, the TGI is greater than 100 µM in the test with HS 578T breast; greater than 82 µM in the test with MOLT-4 leukemia; greater than 100 µM in the test on ACHN renal; greater than 100 µM in the test on COLO 205 colon; greater than 100 µM in the test on A498 renal; greater than 55.5 µM in the test on HCC-2998 colon. The compound also came in with a TGI in the test on MALME-3M melanoma greater than 80.7 µM.

Turning to `CN(C)/C=C/c1nnnn1-c1ccc(I)cc1`, the TGI amounted to 38 µM in the test on IGROV1 ovarian; 33 µM in the test on SK-MEL-5 melanoma; 25.9 µM in the test on CCRF-CEM leukemia; 39.1 µM in the test with UO-31 renal; 36.7 µM in the test with KM12 colon; 51 µM in the test on SF-268 CNS. The TGI with HL-60(TB) leukemia worked out at 25.7 µM; with TK-10 renal it was 87.1 µM; with MDA-MB-231 breast, 40.9 µM; in the test with EKVX NSCLC, 51.3 µM; in the test on SF-539 CNS, 42.5 µM; in the test with OVCAR-8 ovarian, 72.2 µM. Besides, the TGI with HS 578T breast is 45.2 µM; in the test on MOLT-4 leukemia it was 34.1 µM; in the test with ACHN renal it was 63.1 µM; in the test with COLO 205 colon, greater than 100 µM; with A498 renal, greater than 100 µM; in the test on HCC-2998 colon it was greater than 100 µM. Further, the TGI in the test with MALME-3M melanoma was 44.7 µM.

Regarding `CCCCCCCCCC1CC(=O)NCC(=O)NC(C(C)C)C(=O)NC(CC(C)C)C(=O)NC(C)C(=O)NC(C(C)C)C(=O)O1` (configuration not stated), the TGI in the test on IGROV1 ovarian was greater than 100 µM; with SK-MEL-5 melanoma, greater than 61.6 µM; in the test on CCRF-CEM leukemia it was greater than 56.4 µM; in the test with UO-31 renal it was greater than 100 µM; in the test on KM12 colon, 33.9 µM; with SF-268 CNS, 16.1 µM. For the same compound, the TGI with HL-60(TB) leukemia is greater than 100 µM; with TK-10 renal it was 68.9 µM; in the test on MDA-MB-231 breast it was greater than 38.6 µM; in the test on EKVX NSCLC it was greater than 79.9 µM; in the test on SF-539 CNS it was 43.4 µM; with OVCAR-8 ovarian, 18.2 µM. Also, the TGI in the test on HS 578T breast is 53 µM; in the test on MOLT-4 leukemia, greater than 52.4 µM; in the test on ACHN renal it was greater than 100 µM; in the test with COLO 205 colon, greater than 100 µM; in the test on A498 renal, greater than 55.4 µM; with HCC-2998 colon it was greater than 96.2 µM. Further, the TGI in the test with MALME-3M melanoma is greater than 61.9 µM.
